From PubChem BioAssay AID2060610 (Molecular Pharmacology Branch, DTP, NCI, 2025)
Several values for one entry are separate records, joined by “and”; a condition that tells them apart may be missing. Equal entries are not always repeated.

Test system: 616215-338-R-J1-PDC complex spheroids, viability % test/control
Test: Anticancer human tumor 616215-338-R-J1-PDC patient-derived colon adenocarcinoma cell line growth inhibition [CLK]
Conditions: for viability, T/C: stronger effect = lower value
Outline: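 Patient-derived tumor cells grown as complex spheroids with HUVEC endothelial cells and mesenchymal stem cells, treated with drug combinations. Concentrations descend in half-log steps from near clinical Cmax, or from 10 microM if Cmax unknown.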

[1] = curve of first compound, second compound 0.0316 µM
[2] = curve of first compound, second compound 0.1 µM
[3] = curve of first compound, second compound 0.316 µM
[4] = curve of first compound, second compound 1 µM
[5] = curve of first compound, second compound 3.16 µM
[6] = curve of first compound, second compound 10 µM
[7] = second compound 0.0316 µM, first compound 0.0316 µM
[8] = second compound 0.0316 µM, first compound 0.1 µM
[9] = second compound 0.0316 µM, first compound 0.316 µM
[10] = second compound 0.0316 µM, first compound 1 µM
[11] = second compound 0.1 µM, first compound 0.0316 µM
[12] = second compound 0.1 µM, first compound 0.1 µM
[13] = second compound 0.1 µM, first compound 0.316 µM
[14] = second compound 0.1 µM, first compound 1 µM
[15] = second compound 0.316 µM, first compound 0.0316 µM
[16] = second compound 0.316 µM, first compound 0.1 µM
[17] = second compound 0.316 µM, first compound 0.316 µM
[18] = second compound 0.316 µM, first compound 1 µM
[19] = second compound 1 µM, first compound 0.0316 µM
[20] = second compound 1 µM, first compound 0.1 µM
[21] = second compound 1 µM, first compound 0.316 µM
[22] = second compound 1 µM, first compound 1 µM
[23] = second compound 3.16 µM, first compound 0.0316 µM
[24] = second compound 3.16 µM, first compound 0.1 µM
[25] = second compound 3.16 µM, first compound 0.316 µM
[26] = second compound 3.16 µM, first compound 1 µM
[27] = second compound 10 µM, first compound 0.0316 µM
[28] = second compound 10 µM, first compound 0.1 µM
[29] = second compound 10 µM, first compound 0.316 µM
[30] = second compound 10 µM, first compound 1 µM
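Also: spheroids exposed to agents for 7 days.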
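For viability, T/C in this document: 100% = DMSO vehicle wells.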

In the case of `COc1c(OCCCN2CCOCC2)ccc2c3n(c(=NC(=O)c4cnc(N)nc4)nc12)CCN3`, the viability, T/C (compound 0.00316 µM) is reported as 101% and 89.7%, the viability, T/C (compound 0.01 µM) is reported as 111% and 96.4% and the viability, T/C (compound 0.0316 µM) is reported as 106% and 114%. The viability, T/C (compound 0.1 µM) was 57.7% and 74.8%, the viability, T/C (compound 0.316 µM) was 36.1% and 46% and the viability, T/C (compound 1 µM) was 29% and 39.8%. The IC50 (curve of compound) was 0.143 µM and 0.245 µM.
For `CCc1c2c(nc3ccc(O)cc13)-c1cc3c(c(=O)n1C2)COC(=O)[C@]3(O)CC` + CN1CCN(c2cc(C(=O)Nc3cc4cc(-c5cnn(C)c5)ccc4cn3)ccn2)CC1, the IC50 [1] was 0.00964 µM, the IC50 [2] was 0.00361 µM and the IC50 [3] was < 0.00316 µM. The IC50 [4] was < 0.00316 µM, the IC50 [5] was < 0.00316 µM and the IC50 [6] was < 0.00316 µM. It also gave a viability, T/C (second compound 0.0316 µM, first compound 0.00316 µM) of 98.2%, a viability, T/C (second compound 0.0316 µM, first compound 0.01 µM) of 42.2% and a viability, T/C [7] of 32.1%. The viability, T/C [8] was 18%, the viability, T/C [9] was 12.9% and the viability, T/C [10] was 4.92%. It also gave a viability, T/C (second compound 0.1 µM, first compound 0.00316 µM) of 50.8%, a viability, T/C (second compound 0.1 µM, first compound 0.01 µM) of 40.2% and a viability, T/C [11] of 19.1%. It also gave a viability, T/C [12] of 13.1%, a viability, T/C [13] of 14.1% and a viability, T/C [14] of 1.26%. The viability, T/C (second compound 0.316 µM, first compound 0.00316 µM) was 34.2%, the viability, T/C (second compound 0.316 µM, first compound 0.01 µM) was 17.8% and the viability, T/C [15] was 13.5%. It also gave a viability, T/C [16] of 8.84%, a viability, T/C [17] of 1.45% and a viability, T/C [18] of 1.92%. The viability, T/C (second compound 1 µM, first compound 0.00316 µM) was 0.13%, the viability, T/C (second compound 1 µM, first compound 0.01 µM) was 0.13% and the viability, T/C [19] was 3.09%. For the same molecule, the viability, T/C [20] was 0.08%, the viability, T/C [21] was 0.06% and the viability, T/C [22] was 1.66%. The viability, T/C (second compound 3.16 µM, first compound 0.00316 µM) was 0.07%, the viability, T/C (second compound 3.16 µM, first compound 0.01 µM) was 0.12% and the viability, T/C [23] was 1.53%. The viability, T/C [24] was 0.09%, the viability, T/C [25] was 3.53% and the viability, T/C [26] was 4.86%. The viability, T/C (second compound 10 µM, first compound 0.00316 µM) was 0.08%, the viability, T/C (second compound 10 µM, first compound 0.01 µM) was 0.13% and the viability, T/C [27] was 0.18%. It also gave a viability, T/C [28] of 0.13%, a viability, T/C [29] of 3.18% and a viability, T/C [30] of 1.61%.
With `Nc1ccccc1NC(=O)c1ccc(CNC(=O)OCc2cccnc2)cc1` + CN1CCN(c2cc(C(=O)Nc3cc4cc(-c5cnn(C)c5)ccc4cn3)ccn2)CC1 the IC50 [1] was 4.24 µM, the IC50 [2] was 2.54 µM and the IC50 [3] was < 0.0316 µM. The IC50 [4] was < 0.0316 µM, the IC50 [5] was < 0.0316 µM and the IC50 [6] was < 0.0316 µM. It also gave a viability, T/C [7] of 95%, a viability, T/C [8] of 95.3% and a viability, T/C [9] of 110%. For the same molecule, the viability, T/C [10] was 118%, the viability, T/C (second compound 0.0316 µM, first compound 3.16 µM) was 62.7% and the viability, T/C (second compound 0.0316 µM, first compound 10 µM) was 12.6%. It also gave a viability, T/C [11] of 110%, a viability, T/C [12] of 123% and a viability, T/C [13] of 118%. The viability, T/C [14] was 119%, the viability, T/C (second compound 0.1 µM, first compound 3.16 µM) was 34.1% and the viability, T/C (second compound 0.1 µM, first compound 10 µM) was 8.04%. The viability, T/C [15] was 26.6%, the viability, T/C [16] was 31.3% and the viability, T/C [17] was 20.9%. The viability, T/C [18] was 18.9%, the viability, T/C (second compound 0.316 µM, first compound 3.16 µM) was 3.92% and the viability, T/C (second compound 0.316 µM, first compound 10 µM) was 2.67%. It also gave a viability, T/C [19] of 0.16%, a viability, T/C [20] of 0.17% and a viability, T/C [21] of 2.95%. It also gave a viability, T/C [22] of 0.09%, a viability, T/C (second compound 1 µM, first compound 3.16 µM) of 3.76% and a viability, T/C (second compound 1 µM, first compound 10 µM) of 3.49%. The viability, T/C [23] was 0.1%, the viability, T/C [24] was 0.71% and the viability, T/C [25] was 0.63%. It also gave a viability, T/C [26] of 0.09%, a viability, T/C (second compound 3.16 µM, first compound 3.16 µM) of 1.87% and a viability, T/C (second compound 3.16 µM, first compound 10 µM) of 1.46%. For the same molecule, the viability, T/C [27] was 0.08%, the viability, T/C [28] was 0.52% and the viability, T/C [29] was 3.6%. It also gave a viability, T/C [30] of 0.17%, a viability, T/C (second compound 10 µM, first compound 3.16 µM) of 0.18% and a viability, T/C (second compound 10 µM, first compound 10 µM) of 2.22%.
